Laboratory results from ChEMBL document CHEMBL1133550, “(2,2':6',2"-Terpyridine)platinum(II) complexes are irreversible inhibitors of Trypanosoma cruzi trypanothione reductase but not of human glutathione reductase” (J Med Chem, 2000).
Activity calls are given as the source filed them. The rule behind the calls is not given here.

Legend:
[1] = molecular target: Trypanothione reductase (Trypanosoma cruzi) (UniProt P28593); assay: Tested for inhibition of NADPH-reduced trypanothione reductase (TR); No inhibition
Chain of UniProt P28593 (P28593 whole entry, looked up): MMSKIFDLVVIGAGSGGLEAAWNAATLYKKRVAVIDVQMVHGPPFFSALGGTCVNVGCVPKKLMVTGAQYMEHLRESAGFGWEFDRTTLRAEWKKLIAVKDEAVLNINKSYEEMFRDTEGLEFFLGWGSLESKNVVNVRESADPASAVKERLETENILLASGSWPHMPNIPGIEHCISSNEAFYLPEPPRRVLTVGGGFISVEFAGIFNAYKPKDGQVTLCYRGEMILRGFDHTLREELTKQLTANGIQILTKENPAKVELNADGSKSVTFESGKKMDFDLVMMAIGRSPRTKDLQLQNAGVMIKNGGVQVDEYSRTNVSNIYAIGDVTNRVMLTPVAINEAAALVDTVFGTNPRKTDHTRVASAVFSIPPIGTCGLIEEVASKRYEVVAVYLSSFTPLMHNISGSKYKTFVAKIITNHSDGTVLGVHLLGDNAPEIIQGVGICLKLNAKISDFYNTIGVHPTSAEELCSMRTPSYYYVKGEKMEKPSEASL

[2] = Half-life was measured in the presence of NADPH at 20 uM; type: ADME
[3] = molecular target: Trypanothione reductase (Trypanosoma cruzi) (UniProt P28593); assay: Tested for inhibition of NADPH-reduced trypanothione reductase (TR)
[4] = Half-life was measured in the presence of NADPH at 20 uM; No inhibition; type: ADME

| T1/2 [2] [min] | K obs [3] [M⁻¹ s⁻¹] | Substance | further results |
| --- | --- | --- | --- |
| – | – | (S-Glutathionato)-(4'-Chloro-2,2':6'2''-terpyridine)platinum (II) Nitrate [listing 1 of 2 here] | NI [1]: inactive |
| 35 | – | (2-Hydroxyethanethiolato)(2,2':6'2''-terpyridine)platinum (II) Nitrate [listing 1 of 2 here] | – |
| – | 85 | (4-Picoline)(2,2':6'2''-terpyridine)platinum (II) Bis (tetrafluoroborate) [listing 1 of 2 here] | – |
| – | – | (S-Glutathionato)-(4'-Chloro-2,2':6'2''-terpyridine)platinum (II) Nitrate [listing 2 of 2 here] | NI [4]: Not Active |
| 11 | – | (4-Picoline)(2,2':6'2''-terpyridine)platinum (II) Bis (tetrafluoroborate) [listing 2 of 2 here] | – |
| – | 40 | (2-Hydroxyethanethiolato)(2,2':6'2''-terpyridine)platinum (II) Nitrate [listing 2 of 2 here] | – |
